Assay results from ChEMBL document CHEMBL1155747, “Cytotoxic diacetylenes from the stony coral Montipora species” (2001).
≈ marks a conversion by molar mass, not a printed value.

Experiments:
Format in all cases: functional
SK-OV-3 = experiment: Cytotoxicity against human SKOV3 cells; details: read-out: ED50 (the source's name)
HCT-15 = experiment: Cytotoxicity against human HCT15 cells; details: read-out: ED50 (the source's name)
A549 = experiment: Cytotoxicity against human A549 cells; details: read-out: ED50 (the source's name)
SK-MEL-2 = experiment: Cytotoxicity against human SK-MEL-2 cells; details: read-out: ED50 (the source's name)
XF498 = experiment: Cytotoxicity against human XF498 cells; details: read-out: ED50 (the source's name)
HCT-116 = experiment: Inhibition of cell cycle in human HCT116 cells assessed as increase in apoptotic fraction at 100 ug/mL after 24 hrs by flow cytometry; design: scale not given: the % may be the effect or the level left

Structure (SMILES)	EC50 (SK-OV-3) [µg/mL]	EC50 (HCT-15) [µg/mL]	EC50 (A549) [µg/mL]	EC50 (SK-MEL-2) [µg/mL]	EC50 (XF498) [µg/mL]	Activity (HCT-116) [%]
C=CCCCCCCCC#CC#CCO	3.23 (≈ 15.8 µM)	3.32 (≈ 16.2 µM)	3.9 (≈ 19.1 µM)	3.94 (≈ 19.3 µM)	5.26 (≈ 25.7 µM)	
C=CCCCCCC#CC#C/C=C/C(C)=O	3.52 (≈ 16.4 µM)	4.56 (≈ 21.3 µM)	6.39 (≈ 29.8 µM)	4.21 (≈ 19.6 µM)	5.5 (≈ 25.7 µM)	
CCCCCCCC#CC#CCOCC(=O)[O-].[Na+] [MONTIPORIC ACID A SODIUM SALT]	7.5	8.3	6.31	7.97	7.72	
CCCCCCCC#CC#CCO	4.63 (≈ 26 µM)	5.9 (≈ 33.1 µM)	5.48 (≈ 30.7 µM)	4.45 (≈ 25 µM)	5.59 (≈ 31.4 µM)	
C=CCCCCCC#CC#C/C=C\C(C)=O	5.23 (≈ 24.4 µM)	11.3 (≈ 52.7 µM)	> 30	4.61 (≈ 21.5 µM)	29.2 (≈ 136 µM)	
C=CCCCCCCCC#CC#CCOCC(=O)OC [METHYLMONTIPORATE B]	> 30	> 30	> 30	> 30	> 30	
C=CCCCCCC#CC#CCO [MONTIPORYNE G]	9.79 (≈ 55.5 µM)	12.9 (≈ 73.4 µM)	13.8 (≈ 78.2 µM)	9.56 (≈ 54.2 µM)	10.8 (≈ 61.2 µM)	
C=CCCCCCC#CC#CCOCC(=O)[O-].[Na+] [MONTIPORIC AICD C]	> 30	> 30	> 30	> 30	> 30	
C=CCCCCCC#CC#CC(O)CC(C)=O (racemic)	3.85 (≈ 16.6 µM)	3.42 (≈ 14.7 µM)	4.97 (≈ 21.4 µM)	3.74 (≈ 16.1 µM)	3.87 (≈ 16.7 µM)	
COc1cccc2c1C(=O)c1c(O)c3c(c(O)c1C2=O)C[C@@](O)(C(=O)CO)C[C@@H]3O[C@H]1C[C@H](N)[C@H](O)[C@H](C)O1 [DOXORUBICIN]	0.13 (≈ 0.239 µM)	0.04 (≈ 0.0736 µM)	0.02 (≈ 0.0368 µM)	0.03 (≈ 0.0552 µM)	0.08 (≈ 0.147 µM)	
CCCCCCCC#CC#C/C=C/C(C)=O [MONTIPORYNE A]						19
C=CCCCCCCCC#CC#CCOCC(=O)[O-].[Na+]	4.88	4.47	6.26	4.68	4.96	
C=CCCCCCCCC#CC#CC(O)CC(C)=O (racemic) [MONTIPORYNE K]	3.34 (≈ 12.8 µM)	4.18 (≈ 16.1 µM)	4.91 (≈ 18.9 µM)	3.52 (≈ 13.5 µM)	4.45 (≈ 17.1 µM)	
C=CCCCCCC#CC#CCOCCO [MONTIPORYNE H]	17.9 (≈ 81.4 µM)	24.1 (≈ 109 µM)	22.7 (≈ 103 µM)	25.1 (≈ 114 µM)	16.9 (≈ 76.6 µM)	
CCCCCCCC#CC#CC(O)CC(C)=O (racemic) [MONTIPORYNE I]	1.81 (≈ 7.72 µM)	3.73 (≈ 15.9 µM)	4.17 (≈ 17.8 µM)	1.4 (≈ 5.97 µM)	3.7 (≈ 15.8 µM)	
CCCCCCCC#CC#CCOCC(=O)OC [METHYLMONTIPORATE A]	20.5 (≈ 82 µM)	25.6 (≈ 102 µM)	> 30	> 30	> 30	
